Experimental data: BigSolDB 2.1

CN1COCN(Cc2cnc(Cl)s2)C1=N[N+](=O)[O-]
solubility (mole fraction)
Details	278.15 K	283.15 K	288.15 K	293.15 K	298.15 K	303.15 K	308.15 K	313.15 K	318.15 K	323.15 K
in 1,4-dioxane	–	–	0.00242	0.00311	0.00395	0.00496	0.00626	0.00763	0.00958	0.0117
in DMAc	0.0654	0.0728	0.0802	0.0888	0.0976	0.107	0.118	0.129	0.14	0.152
in DMSO	–	–	0.0672	0.0776	0.0885	0.101	0.115	0.13	0.147	0.164
in acetonitrile	0.00675	0.00854	0.0106	0.0131	0.0161	0.0196	0.0238	0.0288	0.0349	0.0414
in water	7.29e-05	9.97e-05	0.000132	0.000182	0.000241	0.000322	0.000418	0.000538	0.000696	0.000885
